Data reported in US12495798B2, “Nicotinamide compound and herbicidal composition comprising compound” (KOREA RESEARCH INSTITUTE OF CHEMICAL TECHNOLOGY, priority 2019, dated 2025).

Columns and labels:
Format in all cases: in vivo
sorghum = test: Herbicidal activity test against upland field weeds (foliar treatment test); settings: Sorghum, 50 g ai/ha, scale 0-100
Outline: (§1)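 Weeds were raised from seed or rootstocks in horticultural soil in a greenhouse (30±5° C., 14/10 h light/dark), then foliage was hand-sprayed with compound at 50 or 75 g a.i./ha in 50% acetone with 0.1% Tween-20. Control was scored visually 0–100 against untreated plants after 14 days, or 21 if needed.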

quack grass [1] = test: as above; set-up: key to Foliar treatment herbicidal activity, quack grass: 0 (no control); 100 (complete control); settings: 50 g ai/ha, scale 0-100
Outline: as §1

velvetleaf [2] = test: as above; settings: Abutilon theophrasti, 50 g ai/ha, scale 0-100, read-out: Foliar treatment herbicidal activity, velvet leaf
Outline: as §1

cocklebur = test: as above; settings: Xanthium strumarium, 50 g ai/ha, scale 0-100
Outline: as §1

barnyard grass = test: Herbicidal activity test against upland field weeds (soil treatment test); set-up: key to Soil treatment herbicidal activity, barnyard grass: 0 (no control); 100 (complete control); settings: 50 g ai/ha, scale 0 (no control) to 100 (complete control)
Outline: (§2)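 Pre-emergence test: seeds or rootstocks were sown in fertilized sandy loam, and the next day the soil surface was sprayed with compound at 50 or 75 g a.i./ha in 50% acetone/0.1% Tween-20. Plants were grown in a greenhouse (30±5 °C, 14/10 h light/dark), then visually scored 0–100 against untreated at 14 d (21 d if needed).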

quack grass [3] = test: as above; set-up: key to Soil treatment herbicidal activity, quack grass: 0 (no control); 100 (complete control); settings: 50 g ai/ha, scale 0 (no control) to 100 (complete control)
Outline: as §2

crabgrass = test: as above; set-up: key to Soil treatment herbicidal activity, Crabgrass: 0 (no control); 100 (complete control); settings: 50 g ai/ha, scale 0 (no control) to 100 (complete control)
Outline: as §2

velvetleaf [4] = test: as above; set-up: key to Soil treatment herbicidal activity, velvet leaf: 0 (no control); 100 (complete control); settings: 50 g ai/ha, scale 0 (no control) to 100 (complete control)
Outline: as §2

corn = test: Phytotoxicity test for upland field crops (foliar treatment test); set-up: key: 0 (no harm); 9 (complete withered)
Outline: (§3)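 Greenhouse-grown crops (30±5 °C, 14/10 h light/dark) in soil pots were foliar-sprayed with compound in 33% acetone/0.1% Tween-20 at 19˜300 g a.i./ha, 100 ml per m^2. Injury was graded 0 (no harm) to 9 (complete withered) versus untreated control at 7 and 14 days after treatment, or 21 days if needed.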

cotton = test: as above; set-up: key: 0 (no harm); 9 (complete withered)
Outline: as §3

rice = test: as above; set-up: key: 0 (no harm); 9 (complete withered)
Outline: as §3

soybean = test: as above; set-up: key: 0 (no harm); 9 (complete withered)
Outline: as §3

wheat = test: as above; set-up: key: 0 (no harm); 9 (complete withered)
Outline: as §3

For `Cn1nc(COCc2nc(C(F)(F)F)ccc2C(=O)Nc2nnnn2C)nc1Cl` [Compound No. 2-135, 2-(((5-chloro-1-methyl-1H-1,2,4-triazol-3-yl)methoxy)methyl)-N-(1-methyl-1H-tetrazol-5-yl)-6-(trifluoromethyl)nicotinamide], the plant injury at 50 g/ha (sorghum) was 30%, the “Foliar treatment herbicidal activity, quack grass” value (quack grass [1]) was 0 and the pest or weed control at 50 g/ha (velvetleaf [2]) was 40%. The pest or weed control at 50 g/ha (cocklebur) was 95%, the “Soil treatment herbicidal activity, barnyard grass” value (barnyard grass) was 0 and the “Soil treatment herbicidal activity, quack grass” value (quack grass [3]) was 0. For the same compound, the “Soil treatment herbicidal activity, Crabgrass” value (crabgrass) was 0, the “Soil treatment herbicidal activity, velvet leaf” value (velvetleaf [4]) was 0 and the “Foliar treatment phytotoxicity, Corn” value (corn; 50 g ai/ha, Corn (7 days after treatment)) was 0. For the same compound, the “Foliar treatment phytotoxicity, Corn” value (corn; 50 g ai/ha, Corn (14 days after treatment)) was 0, the “Foliar treatment phytotoxicity, Corn” value (corn; 100 g ai/ha, Corn (7 days after treatment)) was 0 and the “Foliar treatment phytotoxicity, Corn” value (corn; 100 g ai/ha, Corn (14 days after treatment)) was 0. The “Foliar treatment phytotoxicity, Cotton” value (cotton; 50 g ai/ha, Cotton (7 days after treatment)) was 3, the “Foliar treatment phytotoxicity, Cotton” value (cotton; 50 g ai/ha, Cotton (14 days after treatment)) was 7 and the “Foliar treatment phytotoxicity, Cotton” value (cotton; 100 g ai/ha, Cotton (7 days after treatment)) was 3. For the same compound, the “Foliar treatment phytotoxicity, Cotton” value (cotton; 100 g ai/ha, Cotton (14 days after treatment)) was 7, the “Foliar treatment phytotoxicity, Rice” value (rice; 50 g ai/ha, Rice (7 days after treatment)) was 3 and the “Foliar treatment phytotoxicity, Rice” value (rice; 50 g ai/ha, Rice (14 days after treatment)) was 6. For the same compound, the “Foliar treatment phytotoxicity, Rice” value (rice; 100 g ai/ha, Rice (7 days after treatment)) was 4, the “Foliar treatment phytotoxicity, Rice” value (rice; 100 g ai/ha, Rice (14 days after treatment)) was 6 and the “Foliar treatment phytotoxicity, Soybean” value (soybean; 50 g ai/ha, Soybean (7 days after treatment)) was 4. For the same compound, the “Foliar treatment phytotoxicity, Soybean” value (soybean; 50 g ai/ha, Soybean (14 days after treatment)) was 6, the “Foliar treatment phytotoxicity, Soybean” value (soybean; 100 g ai/ha, Soybean (7 days after treatment)) was 4 and the “Foliar treatment phytotoxicity, Soybean” value (soybean; 100 g ai/ha, Soybean (14 days after treatment)) was 7. The “Foliar treatment phytotoxicity, Wheat” value (wheat; 50 g ai/ha, Wheat (7 days after treatment)) was 0, the “Foliar treatment phytotoxicity, Wheat” value (wheat; 50 g ai/ha, Wheat (14 days after treatment)) was 0 and the “Foliar treatment phytotoxicity, Wheat” value (wheat; 100 g ai/ha, Wheat (7 days after treatment)) was 0. For the same compound, the “Foliar treatment phytotoxicity, Wheat” value (wheat; 100 g ai/ha, Wheat (14 days after treatment)) was 0.
